“And” between values parts separate entries of the source, which are not always exact repeats. Equal entries are not always repeated. Where two headings read alike, the source gives them in different places. Marks after values point to notes of the source that are not given here.
Key:
HPAFII = assay: ATP depletion cytotoxicity assay 48 hr; type: cell-based, human
Method: (§4) Following exposure to Test Items, the CellTitre-Glo Luminescent Cell Viability Assay to measure ATP content was performed according to the manufacturer's detailed instructions (Promega Corporation, Technical Bulletin No. 288, and Cell notes, Issue 10, 2004).
(§5) Cells were plated at the optimal plating density for that cell line in 96-well plates and allowed to attach overnight. […] Cells were exposed to these compounds in Roswell Park Memorial Institute (RPMI) medium containing 10% Foetal Calf Serum (FCS) and 2 mM Glutamine at 37° C. and 5% CO2 for 48 hours. There were 3 replicates for each test item concentration.
(§6) Following exposure to Test Items, the CellTitre-Glo Luminescent Cell Viability Assay to measure ATP content will be performed according to the manufacturer's detailed instructions (Promega Corporation, Technical Bulletin No. 288, and Cell notes, Issue 10, 2004).

OV-90 = assay: ATP depletion cytotoxicity assay 48 hr; type: cell-based, human
Method: (§7) Assay replicates were independent in time and up to 4 replicates were performed per cell line.
(§8) Cells were plated at the optimal plating density for that cell line in 96-well plates and allowed to attach overnight. The next day, the medium was removed and replaced with fresh medium containing the dose ranges of test items. […] There were 3 replicates for each test item concentration.
as §4
(§9) Cells were plated at the optimal plating density for that cell line in 96-well plates and allowed to attach overnight. The next day, cells were pre-treated with the inhibitors UO126 or LY294002 (see Tables 18 & 20) for 2 hrs, the medium was removed and replaced with fresh medium containing the appropriate dose of the test item. […] Cells were exposed to these compounds in Roswell Park Memorial Institute (RPMI) medium containing 10% Foetal Calf Serum (FCS) and 2 mM Glutamine at 37° C. and 5% CO2 for 48 hours. There were 3 replicates for each test item concentration.
as §6

[1] = Phase I study CXR1002-001: urinary excretion; type: in vivo, human; conditions: 24 hour urine post each weekly dose
A2780 = assay: SRB cytotoxicity assay 48 hr; type: cell-based, human; conditions: read-out: IC50 Values After 48 Hrs Exposure
Method: (§10) The SRB assay was performed according to the method specified by the NIC/NIH. […] Assay replicates were independent in time and up to 4 replicates were performed per cell line.

U2OS = assay: ATP depletion cytotoxicity assay 48 hr; type: cell-based; conditions: Homo sapiens, Study CXR0798, read-out: IC50 1
Method: as §10

MDA-MB-157 [2] = assay: SRB cytotoxicity assay 48 hr; type: cell-based, human; conditions: read-out: IC50 Values After 48 Hrs Exposure
Method: as §10

[3] = system: PC3 (prostate) xenograft tumours; assay: PC3 xenograft in nude mice; type: in vivo, nude mouse
Method: (§1) A parallel experiment was carried out using the prostate tumour cell line PC3.
(§2) These effects are consistent with a transient effect on the liver associated with mild toxicity and reversible liver enlargement. In rodents, this type of effect is usually due to hepatic PPARα activation associated with peroxisome proliferation.

[4] = PC3 xenograft in nude mice; type: in vivo, nude mouse; conditions: nude, mouse, plasma, intraperitoneal; PC3 model; 25 mg/kg three times weekly; 24 hrs post last dose; Day 29
Method: as §1, §2

[5] = system: patients with advanced cancer; assay: Phase I study CXR1002-001: anti-tumour response; type: in vivo, human
HepG2 [6] = assay: SRB cytotoxicity assay 48 hr; type: cell-based, human; conditions: read-out: IC50 Values After 48 Hrs Exposure
Method: as §10

Plasma protein binding = type: in vitro ADME
CYP2C9 = CYP2C9 (Homo sapiens, UniProt P11712); assay: Cytochrome P450 isozyme inhibition; type: in vitro ADME; conditions: under the conditions used (unpublished data); read-out: IC50 towards CYP2C9
CYP2C9, sequence (P11712 whole entry): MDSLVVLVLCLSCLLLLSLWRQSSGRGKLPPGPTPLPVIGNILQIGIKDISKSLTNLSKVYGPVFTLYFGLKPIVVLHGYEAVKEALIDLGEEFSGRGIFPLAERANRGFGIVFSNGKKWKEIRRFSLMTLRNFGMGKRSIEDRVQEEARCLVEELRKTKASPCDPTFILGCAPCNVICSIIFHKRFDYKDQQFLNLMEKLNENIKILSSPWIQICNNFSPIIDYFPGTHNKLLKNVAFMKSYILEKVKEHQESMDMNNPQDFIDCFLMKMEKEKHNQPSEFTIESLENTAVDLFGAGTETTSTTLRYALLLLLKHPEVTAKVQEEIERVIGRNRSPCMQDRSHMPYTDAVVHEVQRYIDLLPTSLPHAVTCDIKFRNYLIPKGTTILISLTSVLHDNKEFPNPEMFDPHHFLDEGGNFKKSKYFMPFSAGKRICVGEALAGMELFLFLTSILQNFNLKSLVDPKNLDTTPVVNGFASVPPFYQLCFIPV
Source text: There is no evidence that APFO is metabolised in mammals once dissociated to form perfluorooctanoate.

A375 = assay: SRB cytotoxicity assay 48 hr; type: cell-based, human; conditions: read-out: IC50 Values After 48 Hrs Exposure
Method: as §10

SK-OV3 = assay: ATP depletion cytotoxicity assay 48 hr; type: cell-based, human
Method: as §7, §8, §4, §9, §6

HepG2 [7] = assay: ATP depletion cytotoxicity assay 48 hr; type: cell-based, human
Method: as §7, §8, §4, §9, §6

[8] = system: HT-29 (colon adenocarcinoma) tumours; assay: HT-29 xenograft in nude mice; type: in vivo, nude mouse
Source text: (§3) Animals were inoculated with a tumour cell suspension on each flank and the tumours were allowed to grow for 16 days.
as §2

[9] = HT-29 xenograft in nude mice; type: in vivo, nude mouse; conditions: nude, mouse, plasma, intraperitoneal, 25 mg/kg; HT-29 model; 24 hrs post last dose; Day 29
Source text: as §3, §2

MDA-MB-157 [10] = assay: ATP depletion cytotoxicity assay 48 hr; type: cell-based, human
Method: as §7, §8, §4, §9, §6

H (chondrosarcoma) = assay: ATP depletion cytotoxicity assay 48 hr; conditions: H
Method: as §7, §8
Cells were plated at the optimal plating density for that cell line in 96-well plates and allowed to attach overnight. The next day, cells were pre-treated with the inhibitors UO126 or LY294002 (see Tables 18 & 20) for 2 hrs, the medium was removed and replaced with fresh medium containing the appropriate dose of the test item. […] Cells that were to be treated with DPQ received no pre-treatment. […] There were 3 replicates for each test item concentration.

p21^WAF1 = assay: p21WAF1 transcription reporter (hCG excretion) in A2780/p21WAF1 cells; type: cell-based, human; conditions: 24 hrs exposure; β-hCG excretion
XBP1 mRNA = assay: RT-PCR analysis of XBP1 mRNA splicing in Panc-1 and HepG2 cells; type: cell-based, human; conditions: Panc-1 500-740 μM, HepG2 300 μM; 1-4 days
Method: XBP1-u: unspliced form of XBPI; XBPI-s: spliced form of XBP1.
1. Control; 2. 500 μM/1 day; 3. 500 μM/2 days; […]; 5. 500 μM/4 days; […]; 7. 740 μM/2 days.
Control/1 day; 2. Control/2 days; 3. Control/4 days; 4. Tunicamycin for 24 h; 5. Tunicamycin for 6 h; 6. 300 μM/1 day; 7. 300 μM/2 days; 8. 300 μM/3 days.

PANC-1 = assay: ATP depletion cytotoxicity assay 48 hr; type: cell-based, human
Method: as §4, §5, §6

[11] = system: pregnenolone X receptor (PXR); conditions: species-specific basis; Ren (2009); cited from earlier work
[12] = ATP depletion, 48 hrs, read-out: IC50 1-4 (independent replicates)
[13] = read-out: IC50 1-4 (independent replicates)

SMILES: O=C(O)C(F)(F)C(F)(F)C(F)(F)C(F)(F)C(F)(F)C(F)(F)C(F)(F)F [CXR1002]
- IC50 (HPAFII; Homo sapiens, HPAF-II, 48 h, read-out: IC50 1-4 (independent replicates), ATP depletion, 48 hrs, HPAFII): > 1 mM
- IC50 (HPAFII; Homo sapiens, HPAF-II, 48 h, read-out: IC50 Mean, ATP depletion, 48 hrs, HPAFII): > 1 mM
- IC50 (HPAFII; read-out: IC50 1-4 (independent replicates), ATP depletion, 48 hrs, HPAFII): > 1 mM and 0.75 mM
- IC50 (OV-90; [12]): 670 µM
- IC50 (OV-90; Homo sapiens, OV-90, 48 h, ATP depletion, 48 hrs, read-out: IC50 1-4 (independent replicates)): 650 µM
- IC50 (OV-90; Homo sapiens, OV-90, 48 h, ATP depletion, 48 hrs, read-out: IC50 Mean): 657 µM
- IC50 (OV-90; Homo sapiens, OV-90, 48 h, Example 7, 48 hour, CXR1002 0-1 mM, U0126 fixed 10 μM where combined, read-out: IC50): 714 µM
- urinary excretion [1]: increases with multiple doses
- IC50 (A2780): 238 ± 7.5 µM
- IC50 (U2OS): > 1 mM
- IC50 (MDA-MB-157 [2]): 463 ± 168 µM
- effect on tumours ([3]; 5, 15 and 25 mg/kg i.p.): marked anti-tumour effect
- increase in plasma ALT ([3]; PC3-tumour bearing mice): up to 1.8 fold
- Absolute Tumour Volume as a Percentage of Saline Control ([3]; PC3, 25 mg/kg i.p., Day 25): 19.14%
- effect on body weight ([3]; PC3 model): No marked effects on body weight
- liver weight ([3]; PC3 model): increase in liver weight
- Terminal / maximum CXR1002 plasma level ([3]; PC3 model, 25 mg/kg three times weekly, 24 hrs post last dose, Day 29): 281 µM
- increase in plasma AST ([3]; mice bearing PC3 xenografts): up to 3.5 fold
- plasma glucose and triglyceride levels ([3]; tumour-bearing nude mice, PC-3): slight reductions
- concentration at 24 h [4]: 281 µM
- On-Study Duration ([5]; 50 mg/week, pancreatic): 35 weeks
- On-Study Duration ([5]; 100 mg/week, colorectal): 20 weeks
- On-Study Duration ([5]; 200 mg/week, anaplastic thyroid, patient remains on study): 22* weeks
- On-Study Duration ([5]; 200 mg/week, cervical, patient remains on study): 22* weeks
- best response ([5]; investigator assessment): stable disease
- duration of stable disease ([5]; one patient with pancreatic cancer): 7 months
- IC50 (HepG2 [6]): 162 ± 31.8 µM
- plasma protein binding (Plasma protein binding): highly plasma protein bound
- IC50 (CYP2C9): 760 nM
- IC50 (A375): 222 ± 21.2 µM
- IC50 (SK-OV3; Homo sapiens, SK-OV-3, 48 h, read-out: IC50 1-4 (independent replicates)): 550 µM
- IC50 (SK-OV3; Homo sapiens, SK-OV-3, 48 h, read-out: IC50 Mean): 535 µM
- IC50 (SK-OV3; [13]): 520 µM
- IC50 (HepG2 [7]; Homo sapiens, HepG2, 48 h, read-out: IC50 1-4 (independent replicates)): 240 µM
- IC50 (HepG2 [7]; Homo sapiens, HepG2, 48 h, read-out: IC50 Mean): 273 µM
- IC50 (HepG2 [7]; [13]): 230 µM and 350 µM
- effect on tumour volumes ([8]; 25 mg/kg i.p. three times per week for 28 days): anti-tumour effect
- Absolute Tumour Volume as a Percentage of Saline Control ([8]; HT-29, 25 mg/kg i.p. three times per week, Day 29): 49.22%
- effect on body weight ([8]; HT-29 model): No significant compound-dependent effects
- increase in liver weight ([8]; HT-29 model): up to 2.5 fold
- Terminal / maximum CXR1002 plasma level ([8]; HT-29 model, 24 hrs post last dose, Day 29): 277 µM
- increase in plasma AST ([8]; mice bearing HT-29 xenografts): up to 3.5 fold
- plasma ALT levels ([8]; mice bearing HT-29 xenografts): decreased
- plasma glucose and triglyceride levels ([8]; tumour-bearing nude mice, HT-29): slight reductions
- concentration at 24 h [9]: 277 µM
- IC50 (MDA-MB-157 [10]; Homo sapiens, MDA-MB-157, 48 h, read-out: IC50 1-4 (independent replicates), ATP depletion, 48 hrs, MDA-MB-157): 670 µM
- IC50 (MDA-MB-157 [10]; Homo sapiens, MDA-MB-157, 48 h, read-out: IC50 Mean, ATP depletion, 48 hrs, MDA-MB-157): 665 µM
- IC50 (MDA-MB-157 [10]; read-out: IC50 1-4 (independent replicates), ATP depletion, 48 hrs, MDA-MB-157): 675 µM and 650 µM
- IC50 (H (chondrosarcoma); Example 7, 48 hour, CXR1002 0-1 mM, U0126 fixed 10 μM where combined): 817 µM
- IC50 (H (chondrosarcoma); read-out: IC50 1-4 (independent replicates), ATP depletion, 48 hrs): 550 µM and 555 µM and 800 µM
- IC50 (H (chondrosarcoma); read-out: IC50 Mean, ATP depletion, 48 hrs): 635 µM
- activation of transcription of p21^WAF1 (p21^WAF1): did not activate transcription
- XBP-1 mRNA splicing (XBP1 mRNA): varies from predominately unspliced to spliced
- IC50 (PANC-1; [12]): > 1 mM (2×) and 880 µM
- IC50 (PANC-1; Homo sapiens, PANC-1, 48 h, ATP depletion, 48 hrs, read-out: IC50 1-4 (independent replicates)): > 1 mM
- IC50 (PANC-1; Homo sapiens, PANC-1, 48 h, ATP depletion, 48 hrs, read-out: IC50 Mean): > 1 mM
- IC50 (PANC-1; Homo sapiens, PANC-1, 48 h, Example 7, 48 hour, CXR1002 0-1 mM, U0126 fixed 10 μM where combined, read-out: IC50): > 1 mM
- activation of PXR [11]: are activated

From patent publication US20130029928A1 (priority 2010, published 2013)
